Where two headings read alike, the source gives them in different places.
Tests used:
[1] = biological target: T1, AEA-DA lipid probe targets in Neuro2a cells (Mus musculus, UniProt Q9CPQ3); conditions: for SILAC ratio, TOMM22 (Q9CPQ3): Neuro2a cells, AEA-DA probe
T1 sequence (Q9CPQ3 1-142): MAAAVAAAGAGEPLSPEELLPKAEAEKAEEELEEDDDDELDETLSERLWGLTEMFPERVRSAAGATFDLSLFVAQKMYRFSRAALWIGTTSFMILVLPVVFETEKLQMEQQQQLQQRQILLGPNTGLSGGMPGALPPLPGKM

[2] = biological target: T2, AEA-DA lipid probe targets in Neuro2a cells (Mus musculus, UniProt Q9D024)
T2 sequence (Q9D024 21-483): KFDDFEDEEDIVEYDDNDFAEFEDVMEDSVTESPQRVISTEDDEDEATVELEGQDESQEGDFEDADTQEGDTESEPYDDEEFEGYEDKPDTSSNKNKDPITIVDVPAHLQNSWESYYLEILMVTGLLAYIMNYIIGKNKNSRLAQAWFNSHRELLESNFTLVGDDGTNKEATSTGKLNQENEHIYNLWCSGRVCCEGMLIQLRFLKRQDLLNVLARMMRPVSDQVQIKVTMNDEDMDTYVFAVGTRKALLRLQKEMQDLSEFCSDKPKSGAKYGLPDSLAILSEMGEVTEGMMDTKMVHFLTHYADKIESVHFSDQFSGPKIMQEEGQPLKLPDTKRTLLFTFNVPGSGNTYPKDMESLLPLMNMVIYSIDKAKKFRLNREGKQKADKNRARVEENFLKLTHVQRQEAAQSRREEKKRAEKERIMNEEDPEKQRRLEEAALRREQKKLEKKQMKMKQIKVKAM

[3] = biological target: T3, AEA-DA lipid probe targets in Neuro2a cells (Mus musculus, UniProt Q9CQM2)
T3 sequence (Q9CQM2 1-212): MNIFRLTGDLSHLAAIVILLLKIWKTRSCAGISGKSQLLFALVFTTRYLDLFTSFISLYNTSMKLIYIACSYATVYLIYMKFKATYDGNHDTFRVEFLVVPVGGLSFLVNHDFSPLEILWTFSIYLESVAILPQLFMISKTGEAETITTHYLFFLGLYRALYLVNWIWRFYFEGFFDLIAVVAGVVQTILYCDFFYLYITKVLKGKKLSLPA

[4] = biological target: AEA-DA lipid probe targets in Neuro2a cells (Mus musculus, UniProt Q9QUJ7)
[5] = biological target: T4, AEA-DA lipid probe targets in Neuro2a cells (Mus musculus, UniProt Q9CQQ7)
T4 sequence (Q9CQQ7 43-256): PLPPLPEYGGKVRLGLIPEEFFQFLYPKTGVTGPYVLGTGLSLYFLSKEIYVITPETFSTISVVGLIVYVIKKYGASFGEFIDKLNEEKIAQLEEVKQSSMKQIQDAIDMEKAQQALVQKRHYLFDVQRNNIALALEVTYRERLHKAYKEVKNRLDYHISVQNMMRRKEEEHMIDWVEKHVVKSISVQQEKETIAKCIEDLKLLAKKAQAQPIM

[6] = biological target: AEA-DA lipid probe targets in Neuro2a cells (Mus musculus, UniProt Q9DCH4)
[7] = biological target: T5, AEA-DA lipid probe targets in Neuro2a cells (Mus musculus, UniProt Q99LR1)
T5 sequence (Q99LR1 1-398): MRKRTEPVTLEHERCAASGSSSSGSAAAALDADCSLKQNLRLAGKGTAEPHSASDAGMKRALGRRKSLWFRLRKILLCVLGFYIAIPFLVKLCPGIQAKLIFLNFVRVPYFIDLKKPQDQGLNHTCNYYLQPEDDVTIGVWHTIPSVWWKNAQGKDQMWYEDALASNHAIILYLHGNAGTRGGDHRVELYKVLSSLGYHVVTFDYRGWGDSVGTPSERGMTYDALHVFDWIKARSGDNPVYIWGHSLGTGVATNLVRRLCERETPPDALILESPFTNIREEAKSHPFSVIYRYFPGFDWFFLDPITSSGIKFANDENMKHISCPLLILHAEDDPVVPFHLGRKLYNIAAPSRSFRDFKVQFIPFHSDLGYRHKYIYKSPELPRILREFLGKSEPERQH

[8] = biological target: AEA-DA lipid probe targets in Neuro2a cells (Mus musculus, UniProt Q8VDL4)
[9] = biological target: T6, AEA-DA lipid probe targets in Neuro2a cells (Mus musculus, UniProt Q99J56)
T6 sequence (Q99J56 1-251): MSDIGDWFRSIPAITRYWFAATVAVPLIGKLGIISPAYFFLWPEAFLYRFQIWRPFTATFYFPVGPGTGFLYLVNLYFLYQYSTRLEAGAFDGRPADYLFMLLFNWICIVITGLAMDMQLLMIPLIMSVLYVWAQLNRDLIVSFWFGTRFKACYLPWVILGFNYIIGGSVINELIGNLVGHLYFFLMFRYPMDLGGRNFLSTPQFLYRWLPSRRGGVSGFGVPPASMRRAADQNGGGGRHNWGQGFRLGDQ

[10] = biological target: T7, AEA-DA lipid probe targets in Neuro2a cells (Mus musculus, UniProt Q8BHC4); conditions: for SILAC ratio, DCAKD (Q8BHC4): Neuro2a cells, AEA-DA probe
T7 sequence (Q8BHC4 1-231): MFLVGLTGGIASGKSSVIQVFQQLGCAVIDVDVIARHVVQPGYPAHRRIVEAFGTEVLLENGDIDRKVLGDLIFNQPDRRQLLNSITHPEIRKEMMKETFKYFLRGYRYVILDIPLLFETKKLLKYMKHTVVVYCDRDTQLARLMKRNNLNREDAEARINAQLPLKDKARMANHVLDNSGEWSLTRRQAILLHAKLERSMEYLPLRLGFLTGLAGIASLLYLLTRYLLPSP

AEA-DA lipid probe targets in Neuro2a cells (Mus musculus, UniProt Q9QUJ7), sequence (Q9QUJ7 whole entry): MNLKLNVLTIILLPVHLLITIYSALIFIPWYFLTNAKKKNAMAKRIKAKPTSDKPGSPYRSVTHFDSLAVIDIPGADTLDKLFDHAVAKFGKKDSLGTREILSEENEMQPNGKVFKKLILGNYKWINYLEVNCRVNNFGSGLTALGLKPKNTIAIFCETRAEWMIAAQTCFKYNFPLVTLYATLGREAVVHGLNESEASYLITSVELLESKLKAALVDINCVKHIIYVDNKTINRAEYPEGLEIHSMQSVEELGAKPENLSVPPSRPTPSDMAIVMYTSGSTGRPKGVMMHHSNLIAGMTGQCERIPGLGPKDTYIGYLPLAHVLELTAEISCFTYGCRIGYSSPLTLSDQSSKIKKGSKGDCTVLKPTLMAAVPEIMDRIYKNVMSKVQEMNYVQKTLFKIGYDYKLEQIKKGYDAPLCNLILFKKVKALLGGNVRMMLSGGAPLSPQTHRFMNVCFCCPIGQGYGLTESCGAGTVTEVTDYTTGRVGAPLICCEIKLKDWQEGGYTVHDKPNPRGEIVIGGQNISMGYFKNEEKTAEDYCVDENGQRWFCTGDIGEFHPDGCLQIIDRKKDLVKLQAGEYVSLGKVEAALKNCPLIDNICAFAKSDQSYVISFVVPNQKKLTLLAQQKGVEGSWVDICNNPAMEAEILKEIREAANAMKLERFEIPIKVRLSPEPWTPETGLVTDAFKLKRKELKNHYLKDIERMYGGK
AEA-DA lipid probe targets in Neuro2a cells (Mus musculus, UniProt Q9DCH4), sequence (Q9DCH4 whole entry): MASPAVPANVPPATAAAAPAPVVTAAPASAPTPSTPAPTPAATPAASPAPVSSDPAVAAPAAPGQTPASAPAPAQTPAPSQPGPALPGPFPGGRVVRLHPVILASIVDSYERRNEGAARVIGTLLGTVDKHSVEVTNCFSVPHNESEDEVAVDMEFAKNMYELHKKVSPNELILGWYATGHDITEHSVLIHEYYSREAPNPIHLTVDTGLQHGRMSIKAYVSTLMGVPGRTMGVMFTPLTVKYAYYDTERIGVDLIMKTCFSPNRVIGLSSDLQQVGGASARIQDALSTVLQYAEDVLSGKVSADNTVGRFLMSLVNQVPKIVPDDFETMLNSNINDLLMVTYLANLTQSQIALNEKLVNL
AEA-DA lipid probe targets in Neuro2a cells (Mus musculus, UniProt Q8VDL4), sequence (Q8VDL4 23-496): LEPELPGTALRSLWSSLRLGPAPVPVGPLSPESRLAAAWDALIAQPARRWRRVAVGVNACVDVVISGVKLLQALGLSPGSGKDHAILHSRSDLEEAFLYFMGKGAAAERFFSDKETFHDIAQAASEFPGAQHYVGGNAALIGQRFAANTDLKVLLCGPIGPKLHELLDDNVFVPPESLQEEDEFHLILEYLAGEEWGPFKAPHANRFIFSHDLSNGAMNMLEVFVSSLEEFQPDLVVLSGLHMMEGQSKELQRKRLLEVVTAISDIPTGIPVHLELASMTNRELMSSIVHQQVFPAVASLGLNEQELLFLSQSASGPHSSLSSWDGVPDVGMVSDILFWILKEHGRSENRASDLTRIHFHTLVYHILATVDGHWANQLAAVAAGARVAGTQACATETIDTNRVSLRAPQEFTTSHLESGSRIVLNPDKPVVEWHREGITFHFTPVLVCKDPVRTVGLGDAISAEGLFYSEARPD

SMILES: CCCCC/C=C\C/C=C\C/C=C\C/C=C\CCCC(=O)NCCO [AEA, anandamide, reference compound]
- SILAC ratio, TOMM22 (Q9CPQ3) ([1]; competitor 200 μM): 1.4
- SILAC ratio, Tomm22 ([1]; competitor 200 μM): 1.4
- SILAC ratio, Ccdc47 ([2]; competitor 200 μM): 1.7
- SILAC ratio, Kdelr2 ([3]; competitor 200 μM): 1.4
- SILAC ratio Acsl4 ([4]; competitor 200 μM): 1.6
- SILAC ratio Atp5f1 ([5]; competitor 200 μM): 1.5
- SILAC ratio Eif3f ([6]; competitor 200 μM): 1.4
- SILAC ratio, Abhd12 ([7]; competitor 200 μM): 1.8
- SILAC ratio, Adpgk ([8]; competitor 200 μM): 1.8
- SILAC ratio, Derl1 ([9]; competitor 200 μM): 1.8
- SILAC ratio, DCAKD (Q8BHC4) ([10]; competitor 200 μM): 1.9
- SILAC ratio, Dcakd ([10]; competitor 200 μM): 1.9

SMILES: O=C(/C=C/c1cccnc1)NCCCCC1CCN(C(=O)c2ccccc2)CC1 [FK-866, reference compound]
- SILAC ratio, TOMM22 (Q9CPQ3) ([1]; competitor 25 μM): 1.1
- SILAC ratio, Tomm22 ([1]; competitor 25 μM): 1.1
- SILAC ratio, Ccdc47 ([2]; competitor 25 μM): 1.3
- SILAC ratio, Kdelr2 ([3]; competitor 25 μM): 1.2
- SILAC ratio Acsl4 ([4]; competitor 25 μM): 1.3
- SILAC ratio Atp5f1 ([5]; competitor 25 μM): 1.1
- SILAC ratio Eif3f ([6]; competitor 25 μM): 1.3
- SILAC ratio, Abhd12 ([7]; competitor 25 μM): 1.0
- SILAC ratio, Adpgk ([8]; competitor 25 μM): 1.2
- SILAC ratio, Derl1 ([9]; competitor 25 μM): 1.3
- SILAC ratio, DCAKD (Q8BHC4) ([10]; competitor 25 μM): 1.1
- SILAC ratio, Dcakd ([10]; competitor 25 μM): 1.1

SMILES: CN1CCN(C(=O)c2c(-c3ccccc3)c3cc([N+](=O)[O-])ccc3n2C)CC1 [KML110, (1-Methyl-5-nitro-3-phenyl-1H-indol-2-yl)(4-methylpiperazin-1-yl)methanone]
- SILAC ratio, Tomm22 ([1]; competitor 25 μM): 1.3
- SILAC ratio, Ccdc47 ([2]; competitor 25 μM): 1.7
- SILAC ratio, Kdelr2 ([3]; competitor 25 μM): 1.3
- SILAC ratio Acsl4 ([4]; competitor 25 μM): 1.3
- SILAC ratio Atp5f1 ([5]; competitor 25 μM): 1.6
- SILAC ratio Eif3f ([6]; competitor 25 μM): 1.3
- SILAC ratio, Abhd12 ([7]; competitor 25 μM): 1.2
- SILAC ratio, Adpgk ([8]; competitor 25 μM): 1.5
- SILAC ratio, Derl1 ([9]; competitor 25 μM): 1.2
- SILAC ratio, Dcakd ([10]; competitor 25 μM): 1.4

SMILES: CN1CCN(C(=O)c2[nH]c3ccc([N+](=O)[O-])cc3c2-c2ccccc2)CC1 [MJN228, (4-Methylpiperazin-1-yl)(5-nitro-3-phenyl-1H-indol-2-yl)methanone]
- SILAC ratio, TOMM22 (Q9CPQ3) ([1]; competitor 25 μM): 1.2
- SILAC ratio, Tomm22 ([1]; competitor 10 μM): 1.1
- SILAC ratio, Tomm22 ([1]; competitor 25 μM): 1.2
- SILAC ratio, Tomm22 ([1]; competitor 50 μM): 1.2
- SILAC ratio, Tomm22 ([1]; competitor 100 μM): 1.8
- SILAC ratio, Ccdc47 ([2]; competitor 10 μM): 1.4
- SILAC ratio, Ccdc47 ([2]; competitor 25 μM): 1.8
- SILAC ratio, Ccdc47 ([2]; competitor 50 μM): 1.9
- SILAC ratio, Ccdc47 ([2]; competitor 100 μM): 3.1
- SILAC ratio, Kdelr2 ([3]; competitor 10 μM): 1.2
- SILAC ratio, Kdelr2 ([3]; competitor 25 μM): 1.2
- SILAC ratio, Kdelr2 ([3]; competitor 50 μM): 1.3
- SILAC ratio, Kdelr2 ([3]; competitor 100 μM): 1.8
- SILAC ratio Acsl4 ([4]; competitor 10 μM): 1.2
- SILAC ratio Acsl4 ([4]; competitor 25 μM): 1.4
- SILAC ratio Acsl4 ([4]; competitor 50 μM): 1.6
- SILAC ratio Acsl4 ([4]; competitor 100 μM): 1.7
- SILAC ratio Atp5f1 ([5]; competitor 10 μM): 1.2
- SILAC ratio Atp5f1 ([5]; competitor 25 μM): 1.5
- SILAC ratio Atp5f1 ([5]; competitor 50 μM): 1.6
- SILAC ratio Atp5f1 ([5]; competitor 100 μM): 1.8
- SILAC ratio Eif3f ([6]; competitor 10 μM): 1.0
- SILAC ratio Eif3f ([6]; competitor 25 μM): 1.0
- SILAC ratio Eif3f ([6]; competitor 100 μM): 0.9
- SILAC ratio, Abhd12 ([7]; competitor 10 μM): 1.2
- SILAC ratio, Abhd12 ([7]; competitor 25 μM): 1.2
- SILAC ratio, Abhd12 ([7]; competitor 50 μM): 1.2
- SILAC ratio, Abhd12 ([7]; competitor 100 μM): 1.4
- SILAC ratio, Adpgk ([8]; competitor 10 μM): 1.4
- SILAC ratio, Adpgk ([8]; competitor 25 μM): 1.7
- SILAC ratio, Adpgk ([8]; competitor 50 μM): 1.5
- SILAC ratio, Adpgk ([8]; competitor 100 μM): 2.0
- SILAC ratio, Derl1 ([9]; competitor 10 μM): 1.2
- SILAC ratio, Derl1 ([9]; competitor 25 μM): 1.4
- SILAC ratio, Derl1 ([9]; competitor 50 μM): 1.7
- SILAC ratio, Derl1 ([9]; competitor 100 μM): 1.8
- SILAC ratio, DCAKD (Q8BHC4) ([10]; competitor 25 μM): 1.4
- SILAC ratio, Dcakd ([10]; competitor 10 μM): 1.2
- SILAC ratio, Dcakd ([10]; competitor 25 μM): 1.4
- SILAC ratio, Dcakd ([10]; competitor 50 μM): 1.5
- SILAC ratio, Dcakd ([10]; competitor 100 μM): 1.9

SMILES: C=CCN(C)CCCCCCOc1ccc(C(=O)c2ccc(Br)cc2)c(F)c1 [Ro 48-8071, reference compound]
- SILAC ratio, TOMM22 (Q9CPQ3) ([1]; competitor 25 μM): 1.0
- SILAC ratio, Tomm22 ([1]; competitor 25 μM): 1.0
- SILAC ratio, Ccdc47 ([2]; competitor 25 μM): 1.4
- SILAC ratio, Kdelr2 ([3]; competitor 25 μM): 0.9
- SILAC ratio Acsl4 ([4]; competitor 25 μM): 1.1
- SILAC ratio Atp5f1 ([5]; competitor 25 μM): 1.0
- SILAC ratio Eif3f ([6]; competitor 25 μM): 0.9
- SILAC ratio, Abhd12 ([7]; competitor 25 μM): 1.0
- SILAC ratio, Adpgk ([8]; competitor 25 μM): 1.2
- SILAC ratio, Derl1 ([9]; competitor 25 μM): 1.1
- SILAC ratio, DCAKD (Q8BHC4) ([10]; competitor 25 μM): 1.0
- SILAC ratio, Dcakd ([10]; competitor 25 μM): 1.0

From patent US10168342B2, “Lipid probes and uses thereof” (THE SCRIPPS RESEARCH INSTITUTE, priority 2015, dated 2019)
